Data reported in patent US5153179A, “Medicament with improved penetration of the tissue membrane” (Max-Planck-Gesellschaft zur Foerderung der Wissenschaft e.V., priority 1983, dated 1992).
Where “and” joins values, the source holds several entries; their conditions need not be identical. Equal values may be shown once.

Assay: Blood-brain barrier penetration by the method of Oldendorf (radioactively marked active material, A. carotis injection, brain radioactivity after 15 seconds)
Details: for percentage proportion of active material which has passed the blood-brain barrier, with C5: with addition of glycerol 1-pentyl ether; for percentage proportion of active material which has passed the blood-brain barrier, with C5 / percentage proportion of active material which has passed the blood-brain barrier, with C3: about 0.3 Osmol/l; for percentage proportion of active material which has passed the blood-brain barrier, with C5 / percentage proportion of active material which has passed the blood-brain barrier, with C3 / percentage proportion of active material which has passed the blood-brain barrier, without: A. carotis, 15 seconds, + dissolved in inger albumin; for percentage proportion of active material which has passed the blood-brain barrier, with C3: with addition of glycerol 1-propyl ether; for percentage proportion of active material which has passed the blood-brain barrier, without: without addition of a compound of the general formula
Protocol: The effectiveness of the medicament according to the invention was tested according to the method of Oldendorf (Brain-Res., 24, 372-376 (1970)). […] In the case of the medicament according to the invention, the administration took place into the A. carotis. 15 seconds later, the experimental animal was decapitated, the brain removed and the radioactivity bound therein determined. […] The numerical values give the percentage proportion of active material which has passed the blood-brain barrier. As comparative substance, there was employed an isotonic buffer solution. The compound of the general formula was present in iso-osmolar concentration, which corresponds to about 0.3 Osmol/ 1. in the solution administered.
In the case of the experiments according to the method of Oldendorf, the active materials were used in amounts of between 10 and 100 μmol. There was thereby obtained no dependency of the penetration percentage of the active material concentration, i.e. that with increasing amount of active material, the percentage passing the blood-brain barrier remained about the same. In the case of methotrexate as active material, the penetration was also investigated in the case of higher concentrations.
The penetration achieved also depends upon the amount of glycerol derivative of the general formula used. Referring to the results given in Table 1, e.g. with endoxan and the C3 additive, there was achieved a penetration of scarcely 20%, whereas with an equal amount of the C5 additive the penetration lay above 50%. However, if one increases the amount of the C3 derivative 2.5 fold, then the percentage penetrating also increases to about 50%.

| Compound | proportion of active material advancing to the place of action at higher concentrations (higher concentrations, up to above 10 mMole) | percentage proportion of active material passing the barrier at higher concentrations (up to above 10 mMole) | percentage proportion of active material which has passed the blood-brain barrier, with C5 [%] | percentage proportion of active material which has passed the blood-brain barrier, with C3 | percentage proportion of active material which has passed the blood-brain barrier, without [%] | penetration improvement (FIG. 2, M.W. above 600) | percentage penetrating with increased amount of the C3 derivative (amount of the C3 derivative increased 2.5 fold) |
| --- | --- | --- | --- | --- | --- | --- | --- |
| CN(Cc1cnc2nc(N)nc(N)c2n1)c1ccc(C(=O)N[C@@H](CCC(=O)O)C(=O)O)cc1 [methotrexate] | a linear increase | practically the same percentage proportion of active material passing the barrier | 26.2 ± 5.8 | 5.7 ± 1.0% | 4.7 ± 0.6 |  |  |
| O=c1[nH]cc(F)c(=O)[nH]1 [5-fluorouracil] |  |  | 13.0 ± 0.1 |  | 3.7 ± 1.0 |  |  |
| COc1cccc2c1C(=O)c1c(O)c3c(c(O)c1C2=O)C[C@@](O)(C(C)=O)C[C@@H]3O[C@H]1C[C@H](N)[C@H](O)[C@H](C)O1 [daunomycin] |  |  | 76.8 ± 7.0 | 24.1 ± 3.3% | 10.8 ± 2.7 |  |  |
| O=C1c2c(O)ccc(O)c2C(=O)c2c(NCCNCCO)ccc(NCCNCCO)c21 [mitoxandrone] |  |  | 25.1 ± 2.0 |  | 1.8 ± 0.1 |  |  |
| CCCCCCCCCCCCCCCCCCOCC(COP(=O)([O-])OCC[N+](C)(C)C)OC (centres unmarked) [ET 18-O-CH3] |  |  |  | 16.4 ± 4.1% | 4.5 ± 0.8 |  |  |
| bleomycin |  |  | 5.7 ± 1.8 |  | 4.9 ± 1.4 | relatively small |  |
| O=P1(N(CCCl)CCCl)NCCCO1 (centres unmarked) [endoxan] |  |  |  | 18.9 ± 0.3% and ~20% | 11.4 ± 0.4 |  | about 50% |
| CC[C@]1(O)C[C@@H]2CN(CCc3c([nH]c4ccccc34)[C@@](C(=O)OC)(c3cc4c(cc3OC)N(C)[C@H]3[C@@](O)(C(=O)OC)[C@H](OC(C)=O)[C@]5(CC)C=CCN6CC[C@]43[C@@H]65)C2)C1 [vinblastine] |  |  | 44.3 ± 6.7 | 4.2 ± 0.6% | 5.4 ± 1.7 |  |  |
